Read-outs that look alike come from different tables or passages of the source.
Tests used:
EGFR^L858R/T790M = EGFR^L858R/T790M (Homo sapiens, UniProt P00533, L858R/T790M); experiment: HTRF KinEASE-TK in vitro kinase assay, KINASE LT; assay type: biochemical
Excerpt: (§1) The biological activity of compounds described herein were studied according to standard methods known in the art. Methods were used to study inhibition of EGFR, including mutant forms of EGFR comprising L858R, T790M, C797S, and/or Del19 mutations, or any combination thereof (e.g., L858R single, double, or triple mutants). Exemplary, non-limiting methods are described herein.
(§2) Assays using an in vitro kinase assay kit (HTRF KinEASE-TK kit) were used to study the inhibitory activity of compounds described herein with respect to EGFR mutants such as (1) EGFRL858R, (2) EGFR^L858R/T790M, and (3) EGFR^L858R/T790M/C797S.

Ba/F3 EGFR-Del19/T790M = Ba/F3 EGFR-Del19/T790M (Homo sapiens, UniProt P00533, T790M, cells depend on it, form not given); experiment: Ba/F3 viability assay (CellTiter-Glo), BAF3 DT; assay type: cell-based; settings: Ba/F3 EGFR-Del19/T790M cell viability
Excerpt: as §1
(§3) Inhibition of cell proliferation was studied using Ba/F3 viability assays, including the Promega CellTiter-Glo cell viability assay. This assay was used to study the effect of compounds described herein in the following assays: (1) Ba/F3 EGFR-Del19/T790M; (2); Ba/F3 EGFR-Del19/C797S; and (3) Ba/F3 EGFR-Del19/T790M/C797S. P-EGFR Signaling Assays

EGFR^L858R/T790M/C797S = EGFR^L858R/T790M/C797S (Homo sapiens, UniProt P00533, C797S/L858R/T790M); experiment: HTRF KinEASE-TK in vitro kinase assay, KINASE LTC; assay type: biochemical
Excerpt: as §1, §2

[1] = target: Ba/F3 EGFR-Del19/T790M/C797S (Homo sapiens, UniProt P00533, T790M/C797S, cells depend on it, form not given); experiment: Ba/F3 viability assay (CellTiter-Glo), BAF3 DTC; assay type: cell-based; settings: Ba/F3 EGFR-Del19/T790M/C797S cell viability
Excerpt: as §1, §3

Ba/F3 EGFR-Del19/C797S = Ba/F3 EGFR-Del19/C797S (Homo sapiens, UniProt P00533, C797S, cells depend on it, form not given); experiment: Ba/F3 viability assay (CellTiter-Glo), BAF3 DC; assay type: cell-based; settings: Ba/F3 EGFR-Del19/C797S cell viability
Excerpt: as §1, §3

EGFRL858R = EGFRL858R (Homo sapiens, UniProt P00533, L858R); experiment: HTRF KinEASE-TK in vitro kinase assay, KINASE L; assay type: biochemical; settings: EGFR L858R kinase
Excerpt: as §1, §2

[2] = amide bond, TBTU/Et3N, 20.0 °C
[3] = amide bond, TBTU, 20.0 °C

Chain of EGFR^L858R/T790M/C797S (P00533 25-1210 T790M/C797S/L858R): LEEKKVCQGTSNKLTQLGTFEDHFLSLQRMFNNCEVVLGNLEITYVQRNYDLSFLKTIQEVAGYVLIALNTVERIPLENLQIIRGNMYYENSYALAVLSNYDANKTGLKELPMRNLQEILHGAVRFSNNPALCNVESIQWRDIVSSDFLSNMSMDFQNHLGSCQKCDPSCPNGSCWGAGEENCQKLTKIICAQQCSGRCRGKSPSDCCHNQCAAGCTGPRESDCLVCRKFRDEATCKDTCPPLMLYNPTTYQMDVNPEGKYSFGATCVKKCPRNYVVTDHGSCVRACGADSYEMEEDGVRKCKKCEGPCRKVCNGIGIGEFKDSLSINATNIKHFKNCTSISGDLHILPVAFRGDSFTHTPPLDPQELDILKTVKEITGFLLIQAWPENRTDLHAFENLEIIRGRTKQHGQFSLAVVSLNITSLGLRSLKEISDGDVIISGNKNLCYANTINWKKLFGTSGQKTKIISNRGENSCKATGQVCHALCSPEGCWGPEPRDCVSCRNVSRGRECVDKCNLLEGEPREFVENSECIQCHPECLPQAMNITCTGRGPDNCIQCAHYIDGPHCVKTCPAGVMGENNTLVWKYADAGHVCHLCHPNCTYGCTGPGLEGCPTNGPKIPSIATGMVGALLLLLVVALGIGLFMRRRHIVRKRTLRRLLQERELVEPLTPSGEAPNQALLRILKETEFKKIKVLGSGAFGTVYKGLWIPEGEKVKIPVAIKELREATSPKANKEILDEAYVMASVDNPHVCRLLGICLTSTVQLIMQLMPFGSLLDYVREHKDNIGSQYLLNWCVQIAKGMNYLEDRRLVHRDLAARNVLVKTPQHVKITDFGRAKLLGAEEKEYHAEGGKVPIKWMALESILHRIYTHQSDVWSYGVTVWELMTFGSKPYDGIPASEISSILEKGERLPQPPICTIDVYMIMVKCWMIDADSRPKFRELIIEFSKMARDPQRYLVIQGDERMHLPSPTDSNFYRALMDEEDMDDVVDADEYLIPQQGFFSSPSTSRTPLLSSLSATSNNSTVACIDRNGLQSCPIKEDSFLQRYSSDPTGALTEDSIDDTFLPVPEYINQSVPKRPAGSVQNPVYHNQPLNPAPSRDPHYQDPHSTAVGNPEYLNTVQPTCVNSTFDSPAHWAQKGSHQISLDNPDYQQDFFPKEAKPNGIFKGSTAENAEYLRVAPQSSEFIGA
Chain of Ba/F3 EGFR-Del19/T790M (P00533 with tags, fused parts or gaps DEL746-750/T790M, form open): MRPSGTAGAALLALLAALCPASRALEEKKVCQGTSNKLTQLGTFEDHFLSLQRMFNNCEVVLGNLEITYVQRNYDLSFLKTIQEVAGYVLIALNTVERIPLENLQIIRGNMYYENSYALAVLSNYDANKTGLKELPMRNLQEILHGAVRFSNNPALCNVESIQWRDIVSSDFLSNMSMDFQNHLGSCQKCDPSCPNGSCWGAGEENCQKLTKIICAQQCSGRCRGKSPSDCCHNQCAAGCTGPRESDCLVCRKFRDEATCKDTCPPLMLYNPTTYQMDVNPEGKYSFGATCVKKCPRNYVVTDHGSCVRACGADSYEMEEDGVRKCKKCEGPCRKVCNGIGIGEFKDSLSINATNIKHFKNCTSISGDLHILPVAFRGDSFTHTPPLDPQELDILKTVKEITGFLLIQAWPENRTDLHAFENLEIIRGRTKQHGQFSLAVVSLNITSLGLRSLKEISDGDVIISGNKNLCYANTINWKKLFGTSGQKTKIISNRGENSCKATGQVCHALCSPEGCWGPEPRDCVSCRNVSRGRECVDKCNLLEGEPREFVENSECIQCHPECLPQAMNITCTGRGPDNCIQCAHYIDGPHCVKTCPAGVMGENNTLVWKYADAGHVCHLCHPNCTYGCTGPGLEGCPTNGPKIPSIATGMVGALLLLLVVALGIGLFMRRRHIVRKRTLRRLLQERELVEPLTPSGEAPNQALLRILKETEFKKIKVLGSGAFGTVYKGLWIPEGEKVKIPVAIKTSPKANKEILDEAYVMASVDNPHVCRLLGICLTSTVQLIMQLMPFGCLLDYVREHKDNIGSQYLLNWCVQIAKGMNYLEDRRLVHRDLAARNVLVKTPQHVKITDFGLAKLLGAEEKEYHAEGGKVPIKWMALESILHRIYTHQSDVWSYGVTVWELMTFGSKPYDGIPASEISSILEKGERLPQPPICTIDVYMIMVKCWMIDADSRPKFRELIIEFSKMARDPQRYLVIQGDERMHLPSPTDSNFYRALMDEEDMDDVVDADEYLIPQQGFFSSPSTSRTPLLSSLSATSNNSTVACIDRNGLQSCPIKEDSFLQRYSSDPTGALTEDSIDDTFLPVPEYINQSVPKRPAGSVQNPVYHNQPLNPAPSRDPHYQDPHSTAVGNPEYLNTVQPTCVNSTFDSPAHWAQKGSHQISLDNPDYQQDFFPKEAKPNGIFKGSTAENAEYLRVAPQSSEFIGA
Chain of Ba/F3 EGFR-Del19/T790M/C797S (P00533 with tags, fused parts or gaps DEL746-750/T790M/C797S, form open): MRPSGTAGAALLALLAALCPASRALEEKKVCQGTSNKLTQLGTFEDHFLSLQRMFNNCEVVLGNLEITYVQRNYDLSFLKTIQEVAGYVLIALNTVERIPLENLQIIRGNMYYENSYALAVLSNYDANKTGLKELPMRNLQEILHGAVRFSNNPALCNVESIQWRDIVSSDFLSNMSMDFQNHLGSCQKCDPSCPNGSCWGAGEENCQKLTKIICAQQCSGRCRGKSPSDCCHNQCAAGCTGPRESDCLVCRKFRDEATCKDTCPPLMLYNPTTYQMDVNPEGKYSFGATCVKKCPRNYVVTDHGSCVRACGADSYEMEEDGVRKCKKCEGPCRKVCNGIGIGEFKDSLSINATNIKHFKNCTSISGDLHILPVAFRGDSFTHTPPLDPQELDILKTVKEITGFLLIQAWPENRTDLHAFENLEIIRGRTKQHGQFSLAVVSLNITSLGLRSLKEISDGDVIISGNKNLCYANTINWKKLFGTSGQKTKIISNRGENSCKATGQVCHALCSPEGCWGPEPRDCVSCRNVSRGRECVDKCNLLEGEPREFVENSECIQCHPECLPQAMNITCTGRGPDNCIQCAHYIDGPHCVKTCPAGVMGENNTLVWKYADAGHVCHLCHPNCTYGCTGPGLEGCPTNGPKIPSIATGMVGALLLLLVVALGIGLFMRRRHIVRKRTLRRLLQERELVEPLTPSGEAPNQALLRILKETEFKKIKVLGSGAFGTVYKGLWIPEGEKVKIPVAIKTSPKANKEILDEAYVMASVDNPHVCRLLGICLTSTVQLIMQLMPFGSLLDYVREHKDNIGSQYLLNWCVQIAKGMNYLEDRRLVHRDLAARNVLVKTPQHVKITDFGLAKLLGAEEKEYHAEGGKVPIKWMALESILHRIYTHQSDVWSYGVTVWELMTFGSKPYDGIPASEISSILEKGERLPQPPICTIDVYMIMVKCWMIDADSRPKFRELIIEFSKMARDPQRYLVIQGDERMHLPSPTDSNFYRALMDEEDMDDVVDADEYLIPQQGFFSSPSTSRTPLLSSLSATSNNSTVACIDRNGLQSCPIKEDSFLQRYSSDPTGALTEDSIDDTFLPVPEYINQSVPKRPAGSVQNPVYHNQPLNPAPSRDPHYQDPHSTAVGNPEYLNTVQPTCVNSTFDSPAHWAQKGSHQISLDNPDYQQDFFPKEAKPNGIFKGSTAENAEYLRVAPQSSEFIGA
Chain of EGFR^L858R/T790M (P00533 25-1210 T790M/L858R): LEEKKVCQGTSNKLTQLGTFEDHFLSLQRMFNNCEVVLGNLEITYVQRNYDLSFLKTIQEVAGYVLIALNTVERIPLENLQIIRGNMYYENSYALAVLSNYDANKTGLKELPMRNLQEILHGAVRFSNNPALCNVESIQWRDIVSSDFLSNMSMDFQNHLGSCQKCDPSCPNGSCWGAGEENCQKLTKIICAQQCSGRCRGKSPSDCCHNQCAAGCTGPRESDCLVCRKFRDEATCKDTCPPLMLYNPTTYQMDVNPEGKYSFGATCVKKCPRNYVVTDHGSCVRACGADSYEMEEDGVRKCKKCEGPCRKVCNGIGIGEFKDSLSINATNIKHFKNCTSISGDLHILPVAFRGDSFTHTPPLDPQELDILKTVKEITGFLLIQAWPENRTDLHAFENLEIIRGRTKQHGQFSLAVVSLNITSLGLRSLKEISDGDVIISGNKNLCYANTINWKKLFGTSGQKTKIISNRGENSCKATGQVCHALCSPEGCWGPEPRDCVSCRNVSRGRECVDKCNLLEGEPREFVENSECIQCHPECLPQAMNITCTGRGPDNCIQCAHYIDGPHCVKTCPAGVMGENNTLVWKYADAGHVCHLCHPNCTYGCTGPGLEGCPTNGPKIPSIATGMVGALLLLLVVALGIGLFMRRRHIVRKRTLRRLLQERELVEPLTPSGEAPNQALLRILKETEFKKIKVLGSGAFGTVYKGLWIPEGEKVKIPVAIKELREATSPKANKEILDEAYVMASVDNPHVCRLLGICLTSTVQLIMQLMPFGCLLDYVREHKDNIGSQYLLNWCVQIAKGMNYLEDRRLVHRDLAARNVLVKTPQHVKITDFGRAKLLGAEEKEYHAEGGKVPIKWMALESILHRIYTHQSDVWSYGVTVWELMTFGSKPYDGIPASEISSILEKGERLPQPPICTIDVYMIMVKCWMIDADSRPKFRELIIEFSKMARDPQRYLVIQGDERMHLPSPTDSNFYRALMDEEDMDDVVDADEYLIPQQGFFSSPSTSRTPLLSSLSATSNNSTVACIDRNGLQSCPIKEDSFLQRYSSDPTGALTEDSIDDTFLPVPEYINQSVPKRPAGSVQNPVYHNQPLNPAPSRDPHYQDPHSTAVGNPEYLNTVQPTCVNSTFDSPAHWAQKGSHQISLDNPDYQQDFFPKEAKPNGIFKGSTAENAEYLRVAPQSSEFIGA

IC50 (EGFR^L858R/T790M) [nM]	IC50 (EGFR^L858R/T790M/C797S) [nM]	IC50 (EGFRL858R) [nM]	Structure (SMILES)	GI50 (Ba/F3 EGFR-Del19/T790M) [nM]	GI50 [1] [nM]	GI50 (Ba/F3 EGFR-Del19/C797S) [nM]	ring closure, isolated yield ([2]; from Cc1cc(C(=O)O)cc(-c2cnn(C)c2CCCC[C@@H](C)Cn2c(N)nc3ccc(Br)cc32)n1, 15-membered ring, DCM, 2.75 mM) [%]	ring closure, yield of all isomers ([3]; from Cc1cc(C(=O)O)cc(-c2cnn(C)c2CCCC[C@@H](C)Cn2c(N)nc3ccc(Br)cc32)n1, TEA, DCM, 2.75 mM, 2.0 h) [%]	ring closure, isolated yield ([2]; from Cc1cc(C(=O)O)cc(-c2cnn(C)c2CCC[C@@H](C)Cn2c(N)nc3ccc(Br)cc32)n1, 14-membered ring, DCM, 5.05 mM) [%]	ring closure, isolated yield ([2]; from Cc1cc(C(=O)O)cc(-c2cnn(C)c2N2CC(OCCn3c(N)nc4ccc(Br)cc43)C2)n1, 15-membered ring, DCM, 3.99 mM) [%]	ring closure, yield of all isomers ([3]; from Cc1cc(C(=O)O)cc(-c2cnn(C)c2N2CC(OCCn3c(N)nc4ccc(Br)cc43)C2)n1, TEA, DCM, 3.99 mM, 1.0 h) [%]	ring closure, isolated yield ([2]; from Cc1cc(C(=O)O)cc(-c2cnn(C)c2CCCO[C@@H](C)Cn2c(N)nc3ccc(Br)cc32)n1, 15-membered ring, DMF, 190.0 mM) [%]	ring closure, yield of all isomers ([3]; from Cc1cc(C(=O)O)cc(-c2cnn(C)c2CCCO[C@@H](C)Cn2c(N)nc3ccc(Br)cc32)n1, Et3N, DMF, 190.0 mM, 0.5 h) [%]
< 50	< 50	< 50	Cc1ccc(-c2ccc3c(c2)N2C[C@H](C)CCCc4c(cnn4C)-c4cc(cc(C)n4)C(=O)/N=C/2N3)cn1 [Compound (10), (10R,20E)-5,10,25-trimethyl-15-(6-methyl-3-pyridyl)-4,5,12,19,21,26-hexazapentacyclo[21.3.1.02,6.012,20.013,18]heptacosa-1(27),2(6),3,13(18),14,16,20,23,25-nonaen-22-one]	< 50	< 50	< 50							
< 50	< 50	< 50	Cc1cc2cc(n1)-c1cnn(C)c1CCC[C@@H](C)CN1/C(=N/C2=O)Nc2ccc(CN3CCN(CCF)CC3)cc21 [(25)]	< 50	< 50	< 50							
< 50	< 50	< 50	Cc1cc2cc(n1)-c1cnn(C)c1CCC[C@@H](C)CN1/C(=N/C2=O)Nc2c(C)cc(N3CCN(C)CC3)cc21 [(2)]	< 50	< 50	50 to 100							
< 50	< 50	< 50	Cc1cc2cc(n1)-c1cnn(C)c1CCC[C@@H](C)CN1/C(=N/C2=O)Nc2ccc(N(CCN(C)C)CC3COC3)cc21 [(18)]	50 to 100	< 50	100 to 1000							
< 50	< 50	< 50	Cc1cc2cc(n1)-c1cnn(C)c1CCC[C@@H](C)CN1/C(=N/C2=O)Nc2ccc(N3CCC(N4CCOCC4)CC3)cc21 [(24)]	< 50	< 50	< 50							
< 50	< 50	< 50	Cc1cc2cc(n1)-c1cnn(C)c1CCC[C@@H](C)CN1/C(=N/C2=O)Nc2ccc(N3CCC(N4CC[C@H](N(C)C)C4)CC3)cc21 [(4)]	< 50	< 50	< 50							
			Cc1cc2cc(n1)-c1cnn(C)c1CCCC[C@@H](C)Cn1c(nc3ccc(Br)cc31)NC2=O				72.7	72.7					
< 50	< 50	< 50	Cc1cc2cc(n1)-c1cnn(C)c1CCC[C@@H](C)CN1/C(=N/C2=O)Nc2ccc(CN3CCN(C)CC3)cc21 [(35)]	< 50	< 50	< 50							
< 50	< 50	< 50	Cc1cc2cc(n1)-c1cnn(C)c1CCC[C@@H](C)CN1/C(=N/C2=O)Nc2ccc(N3C[C@@H](C)N(C)[C@@H](C)C3)cc21 [(11)]	< 50	< 50	< 50							
< 50	< 50	< 50	COc1ccncc1-c1ccc2c(c1)N1C[C@H](C)CCCc3c(cnn3C)-c3cc(cc(C)n3)C(=O)/N=C/1N2 [(9)]	< 50	< 50	< 50							
			Cc1cc2cc(n1)-c1cnn(C)c1CCC[C@@H](C)CN1/C(=N/C2=O)Nc2ccc(Br)cc21						60.5				
< 50	< 50	< 50	Cc1cc2cc(n1)-c1cnn(C)c1CCC[C@@H](C)CN1/C(=N/C2=O)Nc2ccc(N3CCN(C(C)C)CC3)cc21 [(28)]	< 50	< 50	< 50							
			Cc1cc2cc(n1)-c1cnn(C)c1N1CC(C1)OCCN1/C(=N/C2=O)Nc2ccc(Br)cc21							60.3	60.3		
< 50	< 50	< 50	Cc1cc2cc(n1)-c1cnn(C)c1CCCCCCN1/C(=N/C2=O)Nc2ccc(N(C)CCN(C)C)cc21 [(40)]	< 50	< 50	100 to 1000							
< 50	< 50	100 to 1000	Cc1cc2cc(n1)-c1cnn(C)c1-c1cccc(c1)C(C)CN1/C(=N/C2=O)Nc2ccc(C(=O)N3CCN(C)CC3)cc21 (stereo not shown) [(57)]	≥ 1000	100 to 1000	100 to 1000							
< 50	< 50	100 to 1000	Cc1cc2cc(n1)-c1cnn(C)c1CCCO[C@@H](C)CN1/C(=N/C2=O)Nc2ccc(CN3CCN(C)CC3)cc21 [Compound (55), (11S,21E)-5,11,26-trimethyl-16-[(4-methylpiperazin-1-yl)methyl]-10-oxa-4,5,13,20,22,27-hexazapentacyclo[22.3.1.02,6.013,21.014,19]octacosa-1(28),2(6),3,14(19),15,17,21,24,26-nonaen-23-one]	100 to 1000	50 to 100	100 to 1000							
< 50	< 50	< 50	Cc1cc2cc(n1)-c1cnn(C)c1CCCCCCN1/C(=N/C2=O)Nc2ccc(CN3CCN(C)CC3)cc21 [(64)]	< 50	< 50	50 to 100							
< 50	< 50	< 50	Cc1cc2cc(n1)-c1cnn(C)c1CCCCCN1/C(=N/C2=O)Nc2ccc(CN3CCNCC3)cc21 [(46)]	< 50	< 50	< 50							
< 50	< 50	100 to 1000	Cc1cc2cc(n1)-c1cnn(C)c1-c1cccc(c1)CN1/C(=N/C2=O)Nc2ccc(CN3CCN(C)CC3)cc21 [(61)]	100 to 1000	100 to 1000	100 to 1000							
			Cc1cc2cc(n1)-c1cnn(C)c1CCCO[C@@H](C)CN1/C(=N/C2=O)Nc2ccc(Br)cc21									28.8	28.8
< 50	< 50	< 50	COc1cc(N2CCN(C)CC2)cc2c1N/C1=N\C(=O)c3cc(C)nc(c3)-c3cnn(C)c3CCC[C@@H](C)CN12 [(3)]	50 to 100	< 50	100 to 1000							
100 to 1000	100 to 1000	< 50	Cc1cc2cc(n1)-c1cnn(C)c1CCCCCCN1/C(=N/C2=O)Nc2ccc(CN3CCOCC3)cc21 [(62)]	≥ 1000	100 to 1000	50 to 100							
< 50	< 50	< 50	Cc1cc2cc(n1)-c1cnn(C)c1CCCCCN1/C(=N/C2=O)Nc2ccc(CN3CCN(C)CC3)cc21 [(69)]	< 50	< 50	< 50							
< 50	< 50	< 50	Cc1cc2cc(n1)-c1cnn(C)c1CCC[C@@H](C)CN1/C(=N/C2=O)Nc2ccc(OC3CCNCC3)cc21 [(15)]	< 50	< 50	< 50							

Source: patent US20240199614A1, “MACROCYCLIC EGFR INHIBITORS FOR THE TREATMENT OF CANCER” (Theseus Pharmaceuticals, Inc., priority 2021, published 2024)
